Test results reported in patent US10377753B2, “Substituted 4-azaindoles and their use as GluN2B receptor modulators” (Janssen Pharmaceutica NV, priority 2015, dated 2019).
Structures can show the parent of a compound that is named as a salt.

Each compound was assayed against cloned human NR1/NR2B ion channels (Homo sapiens (Human), UniProt Q05586+Q13224) (assay: HNR2BC: effects of test articles on cloned human NR1/NR2B ion channels expressed in mammalian cells (FLIPR calcium flux)). Conditions: cloned human NR1/NR2B ion channels, Table 5.
Assay type: cell-based
Procedure, shortened: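 In a stable Tet-On-induced cell line expressing human GluN1/GluN2B, Calcium 5-loaded cells were preincubated 5 min with compound, then stimulated 5 min with glutamate at ~EC80 plus 10 μM glycine, in pH 7.4 HEPES buffer. FLIPR calcium fluorescence was normalized to control wells.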

cloned human NR1/NR2B ion channels, sequence (Q13224 27-1484, other chains not shown): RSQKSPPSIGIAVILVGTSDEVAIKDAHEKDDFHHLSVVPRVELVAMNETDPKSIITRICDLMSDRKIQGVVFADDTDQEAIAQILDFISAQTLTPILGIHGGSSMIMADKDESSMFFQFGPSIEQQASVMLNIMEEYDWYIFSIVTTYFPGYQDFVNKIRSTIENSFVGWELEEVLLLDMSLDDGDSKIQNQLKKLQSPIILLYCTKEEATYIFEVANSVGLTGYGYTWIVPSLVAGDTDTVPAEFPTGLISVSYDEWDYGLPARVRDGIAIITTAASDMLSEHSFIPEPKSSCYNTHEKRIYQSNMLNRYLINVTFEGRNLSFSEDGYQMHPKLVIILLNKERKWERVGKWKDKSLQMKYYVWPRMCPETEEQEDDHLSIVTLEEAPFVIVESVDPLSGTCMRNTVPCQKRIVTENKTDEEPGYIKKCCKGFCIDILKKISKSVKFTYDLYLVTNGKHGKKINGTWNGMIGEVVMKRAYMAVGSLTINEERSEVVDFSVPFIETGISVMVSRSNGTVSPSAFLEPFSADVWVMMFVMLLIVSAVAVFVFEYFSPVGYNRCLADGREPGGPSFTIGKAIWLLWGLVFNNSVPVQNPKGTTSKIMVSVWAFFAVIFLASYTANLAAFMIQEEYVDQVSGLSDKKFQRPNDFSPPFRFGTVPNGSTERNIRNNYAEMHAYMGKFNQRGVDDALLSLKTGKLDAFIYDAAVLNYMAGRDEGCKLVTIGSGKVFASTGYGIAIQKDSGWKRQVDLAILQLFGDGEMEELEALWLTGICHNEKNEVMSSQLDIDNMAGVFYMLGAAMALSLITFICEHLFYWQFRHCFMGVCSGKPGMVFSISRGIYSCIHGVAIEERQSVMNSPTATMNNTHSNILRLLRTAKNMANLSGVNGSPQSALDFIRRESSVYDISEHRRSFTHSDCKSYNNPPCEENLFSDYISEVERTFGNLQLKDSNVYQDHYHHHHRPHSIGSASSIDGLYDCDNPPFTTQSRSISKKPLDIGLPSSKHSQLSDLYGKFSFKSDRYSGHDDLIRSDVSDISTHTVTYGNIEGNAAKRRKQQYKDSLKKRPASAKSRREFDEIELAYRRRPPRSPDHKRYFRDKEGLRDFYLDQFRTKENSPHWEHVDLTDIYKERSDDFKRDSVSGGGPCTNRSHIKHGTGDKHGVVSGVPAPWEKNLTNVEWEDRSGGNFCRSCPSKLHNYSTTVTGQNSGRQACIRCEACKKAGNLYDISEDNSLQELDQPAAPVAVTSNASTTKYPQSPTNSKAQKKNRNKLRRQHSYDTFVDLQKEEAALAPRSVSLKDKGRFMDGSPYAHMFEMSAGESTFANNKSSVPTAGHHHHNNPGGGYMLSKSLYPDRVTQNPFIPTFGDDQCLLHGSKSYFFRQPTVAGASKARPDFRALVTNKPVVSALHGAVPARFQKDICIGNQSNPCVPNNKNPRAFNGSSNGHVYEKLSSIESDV

First: O=C(Cn1ccc2ncc(-c3ccc(F)c(F)c3)cc21)N1CCCC1 [Example 367, 2-[6-(3,4-Difluorophenyl)pyrrolo[3,2-b]pyridin-1-yl]-1-pyrrolidin-1-yl-ethanone]
Second: O=C(Cn1cc(F)c2ncc(-c3ccc(F)c(F)c3)cc21)N1CCC1 [Example 382, 1-(Azetidin-1-yl)-2-[6-(3,4-difluorophenyl)-3-fluoro-pyrrolo[3,2-b]pyridin-1-yl]ethanone]
The IC50 of the first is 3.2-fold higher: 50.1 nM for the first, 15.8 nM for the second. The second is the more potent here.

`Cc1csc(-c2cnc3ccn(CC(=O)N4CC(F)(F)C4)c3c2)c1` [Example 368, 1-(3,3-Difluoroazetidin-1-yl)-2-[6-(4-methyl-2-thienyl)pyrrolo[3,2-b]pyridin-1-yl]ethanone] and `Cc1csc(-c2cnc3ccn(CC(=O)N4CC(F)C4)c3c2)c1` [Example 370, 1-(3-Fluoroazetidin-1-yl)-2-[6-(4-methyl-2-thienyl)pyrrolo[3,2-b]pyridin-1-yl]ethanone] are within 1.5-fold of each other in IC50: 25.1 nM for the first, 31.6 nM for the second.

Compared with `Cc1csc(-c2cnc3ccn(CC(=O)N4CCCC4)c3c2)c1` [Example 369, 2-[6-(4-Methyl-2-thienyl)pyrrolo[3,2-b]pyridin-1-yl]-1-pyrrolidin-1-yl-ethanone], `Cc1ccc(-c2cnc3ccn(CC(=O)N4CCC4)c3c2)s1` [Example 380, 1-(Azetidin-1-yl)-2-[6-(5-methyl-2-thienyl)pyrrolo[3,2-b]pyridin-1-yl]ethanone] is 2-fold lower in IC50: 20 nM for the first, 10 nM for the second.

`O=C(Cn1ccc2ncc(-c3cc(F)c(F)c(F)c3)cc21)N1CC(F)C1` [Example 371, 1-(3-Fluoroazetidin-1-yl)-2-[6-(3,4,5-trifluorophenyl)pyrrolo[3,2-b]pyridin-1-yl]ethanone] and `CN(C)C(=O)Cn1ccc2ncc(-c3cc(F)c(F)c(F)c3)cc21` [Example 375, N,N-Dimethyl-2-[6-(3,4,5-trifluorophenyl)pyrrolo[3,2-b]pyridin-1-yl]acetamide] are within 1.5-fold of each other in IC50: 15.8 nM for the first, 12.6 nM for the second.

`O=C(Cn1ccc2ncc(-c3ccc(Cl)s3)cc21)N1CC(F)C1` [Example 372, 2-[6-(5-Chloro-2-thienyl)pyrrolo[3,2-b]pyridin-1-yl]-1-(3-fluoroazetidin-1-yl)ethanone] and `O=C(Cn1ccc2ncc(-c3ccc(Cl)s3)cc21)N1CCC1` [Example 373, 1-(Azetidin-1-yl)-2-[6-(5-chloro-2-thienyl)pyrrolo[3,2-b]pyridin-1-yl]ethanone] are within 1.5-fold of each other in IC50: 15.8 nM for the first, 20 nM for the second.

`O=C(Cn1cc(Cl)c2ncc(-c3ccc(F)c(F)c3F)cc21)N1CC(F)C1` [Example 374, 2-[3-Chloro-6-(2,3,4-trifluorophenyl)pyrrolo[3,2-b]pyridin-1-yl]-1-(3-fluoroazetidin-1-yl)ethanone] and `O=C(Cn1cc(F)c2ncc(-c3cc(F)c(F)c(F)c3)cc21)N1CCC1` [Example 383, 1-(Azetidin-1-yl)-2-[3-fluoro-6-(3,4,5-trifluorophenyl)pyrrolo[3,2-b]pyridin-1-yl]ethanone] are within 1.5-fold of each other in IC50: 20 nM for the first, 15.8 nM for the second.

Going from `CN(C)C(=O)Cn1ccc2ncc(-c3cc(F)cc(F)c3)cc21` [Example 376, 2-[6-(3,5-Difluorophenyl)pyrrolo[3,2-b]pyridin-1-yl]-N,N-dimethyl-acetamide] to `CN(C)C(=O)Cn1ccc2ncc(-c3cccc(C(F)F)c3)cc21` [Example 377, 2-[6-[3-(Difluoromethyl)phenyl]pyrrolo[3,2-b]pyridin-1-yl]-N,N-dimethyl-acetamide], the IC50 falls from 20 nM to 10 nM (2-fold). The second is the more potent here.

For `O=C(Cn1cc(Cl)c2ncc(-c3ccc(Cl)s3)cc21)N1CCC1` [Example 381, 1-(Azetidin-1-yl)-2-[3-chloro-6-(5-chloro-2-thienyl)pyrrolo[3,2-b]pyridin-1-yl]ethanone], the IC50 was 15.8 nM.

Same assay, conditions: cloned human NR1/NR2B, Table 5

`O=C(Cn1ccc2ncc(-c3cccc(C(F)(F)F)c3F)cc21)NC1CC1` [Example 352, N-Cyclopropyl-2-[6-[2-fluoro-3-(trifluoromethyl)phenyl]pyrrolo[3,2-b]pyridin-1-yl]acetamide trifluoroacetate salt] and `O=C(Cn1ccc2ncc(-c3cccc(C(F)(F)F)c3F)cc21)N1CCC1` [Example 358, 1-(Azetidin-1-yl)-2-[6-[2-fluoro-3-(trifluoromethyl)phenyl]pyrrolo[3,2-b]pyridin-1-yl]ethanone trifluoroacetate salt] are the same in IC50: 39.8 nM for the first, 39.8 nM for the second.

Going from `O=C(Cn1ccc2ncc(-c3ccc(F)cc3)cc21)N1CCC1` [Example 353, 1-(Azetidin-1-yl)-2-[6-(4-fluorophenyl)pyrrolo[3,2-b]pyridin-1-yl]ethanone] to `O=C(Cn1ccc2ncc(-c3ccc(F)cc3)cc21)C1CCC1` [Example 365, 1-Cyclobutyl-2-[6-(4-fluorophenyl)pyrrolo[3,2-b]pyridin-1-yl]ethanone], the IC50 falls from 31.6 nM to 20 nM (1.6-fold).

Compared with `O=C(Cn1ccc2ncc(-c3ccccc3)cc21)N1CCC1` [Example 354, 1-(Azetidin-1-yl)-2-(6-phenylpyrrolo[3,2-b]pyridin-1-yl)ethanone], `Cc1cccc(-c2cnc3ccn(CC(=O)N4CCC4)c3c2)c1` [Example 356, 1-(Azetidin-1-yl)-2-[6-(m-tolyl)pyrrolo[3,2-b]pyridin-1-yl]ethanone trifluoroacetate salt] is 1.6-fold lower in IC50: 31.6 nM for the first, 20 nM for the second.

First: O=C(Cn1ccc2ncc(-c3cc(F)cc(F)c3)cc21)N1CCC1 [Example 355, 1-(Azetidin-1-yl)-2-[6-(3,5-difluorophenyl)pyrrolo[3,2-b]pyridin-1-yl]ethanone]
Second: O=C(Cn1ccc2ncc(-c3cc(F)c(F)c(F)c3)cc21)N1CCC1 [Example 363, 1-(Azetidin-1-yl)-2-[6-(3,4,5-trifluorophenyl)pyrrolo[3,2-b]pyridin-1-yl]ethanone]
The IC50 of the first is 1.6-fold lower: 50.1 nM for the first, 79.4 nM for the second. The first is the more potent here.

First: O=C(Cn1ccc2ncc(-c3ccc(Cl)c(Cl)c3)cc21)N1CCC1 [Example 357, 1-(Azetidin-1-yl)-2-[6-(3,4-dichlorophenyl)pyrrolo[3,2-b]pyridin-1-yl]ethanone trifluoroacetate salt]
Second: Cc1csc(-c2cnc3ccn(CC(=O)N4CCC4)c3c2)c1 [Example 359, 1-(Azetidin-1-yl)-2-[6-(4-methyl-2-thienyl)pyrrolo[3,2-b]pyridin-1-yl]ethanone trifluoroacetate salt]
The IC50 of the first is 1.6-fold lower: 20 nM for the first, 31.6 nM for the second.

`Cc1cc(-c2cnc3c(Cl)cn(CC(=O)N4CCC4)c3c2)ccc1F` [Example 360, 1-(Azetidin-1-yl)-2-[3-chloro-6-(4-fluoro-3-methyl-phenyl)pyrrolo[3,2-b]pyridin-1-yl]ethanone] and `O=C(Cn1ccc2ncc(-c3ccc(F)c(F)c3)cc21)N1CC(F)(F)C1` [Example 361, 1-(3,3-Difluoroazetidin-1-yl)-2-[6-(3,4-difluorophenyl)pyrrolo[3,2-b]pyridin-1-yl]ethanone] are within 1.5-fold of each other in IC50: 31.6 nM for the first, 25.1 nM for the second.

`O=C(Cn1ccc2ncc(-c3cccc(C(F)(F)F)n3)cc21)N1CCC1` [Example 362, 1-(Azetidin-1-yl)-2-[6-[6-(trifluoromethyl)-2-pyridyl]pyrrolo[3,2-b]pyridin-1-yl]ethanone] and `CCc1cccc(-c2cnc3ccn(CC(=O)NC4CC4)c3c2)c1` [Example 366, N-Cyclopropyl-2-[6-(3-ethylphenyl)pyrrolo[3,2-b]pyridin-1-yl]acetamide] are the same in IC50: 31.6 nM for the first, 31.6 nM for the second.

With `CC(C)C(=O)Cn1ccc2ncc(-c3cc(F)cc(F)c3)cc21` [Example 364, 1-[6-(3,5-Difluorophenyl)pyrrolo[3,2-b]pyridin-1-yl]-3-methyl-butan-2-one] the IC50 was 20 nM.
